Assay results taken from patent US12544378B2, “Solid pharmaceutical formulation of PARP inhibitors and use thereof” (IMPACT THERAPEUTICS (SHANGHAI), INC, priority 2015, dated 2026).

Assays:
[1] = Absorption of amorphous solid dispersion HP-55 (1:3), rat pharmacokinetics (PK) method (Example 12); assay type: in vivo; conditions: whole blood, Wistar rats, IV, 1 mg/kg, solution in DMSO:10% HP-β-CD PBS (1:9)
Method: Measurement of the Absorption Ratio of the Amorphous Solid Dispersions of 5-fluoro-1-(4-fluoro-3-(4-(pyrimidin-2-yl)piperazine-1-carbonyl)benzyl)quinazoline-2,4(1H,3H)-dione:HP-55 (1:3) Using a Rat Pharmacokinetics (PK) Method
(§1) The solution of 5-fluoro-1-(4-fluoro-3-(4-(pyrimidin-2-yl)piperazine-1-carbonyl)benzyl)quinazoline-2,4(1H,3H)-dione in DMSO:10% HP-β-CD PBS (1:9) was administered to Wistar rats at 1 mg/kg by IV. And the homogeneous suspension of the amorphous solid dispersion of 5-fluoro-1-(4-fluoro-3-(4-(pyrimidin-2-yl)piperazine-1-carbonyl)benzyl)quinazoline-2,4(1H,3H)-dione:HP-55 (1:3) in 0.5% MC/water was administered to Wistar rats at 10 mg/kg by IG. The blood was sampled at a certain time after administration. The blood concentrations were measured by LCMS method, and the oral absorption was measured by a rat pharmacokinetics (PK) method.

[2] = Bioavailability after oral administration of the crystalline compound; conditions: mouse, in vivo, mice, simple mixture of crystalline compound with surfactants (Tween 80) and emulsifiers (methylcellulose)
[3] = Absorption of amorphous solid dispersion HP-55 (1:3), mouse pharmacokinetics (PK) method (Example 11); assay type: in vivo; conditions: whole blood, mice, IV, 1 mg/kg, solution in DMSO:10% HP-β-CD PBS (1:9)
Method: Measurement of the Absorption Ratio of the Amorphous Solid Dispersions of 5-fluoro-1-(4-fluoro-3-(4-(pyrimidin-2-yl)piperazine-1-carbonyl)benzyl)quinazoline-2,4(1H,3H)-dione:HP-55 (1:3) Using a Mouse Pharmacokinetics (PK) Method
as §1, with “to mice” for “to Wistar rats”, “a mouse” for “a rat”

[4] = Effects of vehicle formulas on drug absorption, mouse pharmacokinetics (PK) method (Example 8); assay type: in vivo; conditions: ICR mice, gavage, solution in DMSO:10% HP-β-CD PBS=1:9
Method: Measurement of the Effects of 5-fluoro-1-(4-fluoro-3-(4-(pyrimidin-2-yl)piperazine-1-carbonyl)benzyl)quinazoline-2,4(1H,3H)-dione Vehicle Formulas on the Drug Absorption Using a Mouse Pharmacokinetics (PK) Method
5-Fluoro-1-(4-fluoro-3-(4-(pyrimidin-2-yl)piperazine-1-carbonyl)benzyl)quinazoline-2,4(1H,3H)-dione in different vehicle formulas at the same dosage was administered to ICR mice by gavage. The blood was sampled at 30 min after gavage, the blood concentrations were measured by LCMS method, and the effects on the drug absorption of different vehicle formulas was made a comparison. The blood concentrations were shown as the table below: […]

Water solubility = assay type: physicochemical

`O=C(c1cc(Cn2c(=O)[nH]c(=O)c3c(F)cccc32)ccc1F)N1CCN(c2ncccn2)CC1` [5-fluoro-1-(4-fluoro-3-(4-(pyrimidin-2-yl)piperazine-1-carbonyl)benzyl)quinazoline-2,4(1H,3H)-dione] gave an AUC(0-inf) ([1]; female) of 1290 ng·h/mL, an AUC(0-t) ([1]; female) of 1250 ng·h/mL and a Cmax ([1]; female) of 618 ng/mL. It also gave a half-life ([1]; female) of 304 min, an AUC(0-inf) ([1]; male) of 365 ng·h/mL and an AUC(0-t) ([1]; male) of 363 ng·h/mL. For the same molecule, the Cmax ([1]; male) was 896 ng/mL, the half-life ([1]; male) was 51 min and the bioavailability [2] was < 5%. It also gave an AUC(0-inf) [3] of 997 ng·h/mL, an AUC(0-t) [3] of 991 ng·h/mL and a Cmax [3] of 1920 ng/mL. The half-life [3] was 32.7 min, the oral absorption rate [4] was 48% and the “water solubility (in words)” value (Water solubility) was “very low”.
